Where a SMILES comes first, the peptide text is derived from it. [ ]: non-standard residue; d: D form. Tle = CC(C)(C)[C@H](N)C(=O)O; Aib = CC(C)(N)C(=O)O

The results in this text go back to ChEMBL document CHEMBL4420062, “Tfpi inhibitors and methods of use” (2013).

A short description of data set [1]: Stability in human plasma assessed as parent compound remaining after 24 hrs. Format: ADME, cell-free. The settings on record: read-out: Stability.
Data set [2] is described as follows: Stability in mouse plasma assessed as parent compound remaining after 24 hrs. It is filed as ADME, cell-free. Particulars: read-out: Stability.

Regarding `CC(=O)N[C@@H](Cc1ccccc1)C(=O)N[C@@H](CCC(N)=O)C(=O)N[C@@H](CO)C(=O)N[C@@H](CCCCN)C(=O)N1CCC[C@@H]1C(=O)N[C@@H](CC(N)=O)C(=O)N[C@H](C(=O)N[C@@H](Cc1cnc[nH]1)C(=O)N[C@H](C(=O)N1CCC[C@H]1C(=O)N[C@H](C)C(=O)N[C@@H](Cc1ccc(O)cc1)C(=O)N[C@@H](Cc1ccccc1)C(=O)N[C@@H](CCC(=O)O)C(=O)N[C@@H](CCCNC(=N)N)C(=O)N[C@@H](CC(C)C)C(=O)NC(C)(C)C(=O)N[C@@H](C)C(=O)N[C@@H](CCCCN)C(=O)N[C@@H](CC(C)C)C(N)=O)C(C)C)C(C)C`, the remaining at 24 h in data set [1] worked out at 99.3%; in data set [2], 27.3%.
For `CCCCCCCCCCCCCCCC(=O)NCCCOCCOCCOCCCNC(=O)CCNC(=O)CCC(=O)NCCCC[C@H](NC(=O)[C@H](CC(C)C)NC(=O)[C@H](CCCCN)NC(=O)[C@H](C)NC(=O)C(C)(C)NC(=O)[C@H](CC(C)C)NC(=O)[C@H](CCCNC(=N)N)NC(=O)[C@H](CCC(=O)O)NC(=O)[C@H](Cc1ccccc1)NC(=O)[C@H](Cc1ccc(O)cc1)NC(=O)[C@@H](C)NC(=O)[C@H](CC(=O)O)NC(=O)[C@@H](NC(=O)[C@H](Cc1cnc[nH]1)NC(=O)[C@@H](NC(=O)[C@H](CSCNC(C)=O)NC(=O)[C@H]1CCCN1C(=O)[C@H](CCCCN)NC(=O)[C@H](CO)NC(=O)[C@H](CCC(N)=O)NC(=O)[C@H](Cc1ccccc1)NC(=O)CCCCC)C(C)C)C(C)(C)C)C(N)=O` the same measures were 108% and 67.5%.
In the same order, the values of `CC(=O)N[C@@H](Cc1ccccc1)C(=O)N[C@@H](CCC(N)=O)C(=O)N[C@@H](CO)C(=O)N[C@@H](CCCCN)C(=O)N1CCC[C@@H]1C(=O)N[C@@H](CC(N)=O)C(=O)N[C@H](C(=O)N[C@@H](Cc1cnc[nH]1)C(=O)N[C@H](C(=O)N[C@@H](CC(=O)O)C(=O)NCC(=O)N[C@@H](Cc1ccc(O)cc1)C(=O)N[C@@H](Cc1ccccc1)C(=O)N[C@@H](CCC(=O)O)C(=O)N[C@@H](CCCNC(=N)N)C(=O)N[C@@H](CC(C)C)C(=O)NC(C)(C)C(=O)N[C@@H](C)C(=O)N[C@@H](CCCCN)C(=O)N[C@@H](CC(C)C)C(N)=O)C(C)(C)C)C(C)C` (Ac-FQSK[dP]NVH[Tle]DGYFERL[Aib]AKL-NH2) are 81.9% and 42.6%.
For `CC(=O)N[C@@H](Cc1ccccc1)C(=O)N[C@@H](CCC(N)=O)C(=O)N[C@@H](CO)C(=O)N[C@@H](CCCCN)C(=O)N1CCC[C@@H]1C(=O)N[C@@H](CC(N)=O)C(=O)N[C@H](C(=O)N[C@@H](Cc1cnc[nH]1)C(=O)N[C@H](C(=O)N[C@@H](CC(=O)O)C(=O)NCC(=O)N[C@@H](Cc1ccc(O)cc1)C(=O)N[C@@H](Cc1ccccc1)C(=O)N[C@@H](CCC(=O)O)C(=O)N[C@@H](CCCNC(=N)N)C(=O)N[C@@H](CC(C)C)C(=O)NC(C)(C)C(=O)N[C@@H](CC(C)C)C(=O)N[C@@H](CCCCN)C(=O)N[C@@H](CC(C)C)C(N)=O)C(C)(C)C)C(C)C`, the remaining at 24 h is 78.7% in data set [1] and 13.7% in data set [2].
Take `CC(=O)N[C@@H](Cc1ccccc1)C(=O)N[C@@H](CCC(N)=O)C(=O)N[C@@H](CO)C(=O)N[C@@H](CCCCN)C(=O)N1CCC[C@@H]1C(=O)N[C@@H](CC(N)=O)C(=O)N[C@H](C(=O)N[C@@H](Cc1cnc[nH]1)C(=O)N[C@H](C(=O)N[C@@H](CC(=O)O)C(=O)N[C@H](C)C(=O)N[C@@H](Cc1ccc(O)cc1)C(=O)N[C@@H](Cc1ccccc1)C(=O)N[C@@H](CCC(=O)O)C(=O)N[C@@H](CCCNC(=N)N)C(=O)N[C@@H](CC(C)C)C(=O)NC(C)(C)C(=O)NC(C)(C)C(=O)N[C@@H](CCCCN)C(=O)N[C@@H](CC(C)C)C(N)=O)C(C)(C)C)C(C)C`: the remaining at 24 h in data set [1] stood at 99.2%; in data set [2] it was 85.9%.
In the same order, the values of `CC(=O)N[C@@H](Cc1csc2ccccc12)C(=O)N[C@@H](CCC(N)=O)C(=O)N[C@@H](CO)C(=O)N[C@@H](CCCCN)C(=O)N1CCC[C@@H]1C(=O)N[C@@H](CC(N)=O)C(=O)N[C@H](C(=O)N[C@@H](Cc1cnc[nH]1)C(=O)N[C@H](C(=O)N[C@@H](CC(=O)O)C(=O)NCC(=O)N[C@@H](Cc1ccc(O)cc1)C(=O)N[C@@H](Cc1ccccc1)C(=O)N[C@@H](CCC(=O)O)C(=O)N[C@@H](CCCNC(=N)N)C(=O)N[C@@H](CC(C)C)C(=O)NC(C)(C)C(=O)N[C@@H](C)C(=O)N[C@@H](CCCCN)C(=O)N[C@@H](CC(C)C)C(N)=O)C(C)C)C(C)C` are 18.6% and 0%.
Consider `CC(=O)N[C@@H](Cc1ccccc1)C(=O)N[C@@H](CCC(N)=O)C(=O)N[C@@H](CO)C(=O)N[C@@H](CCCCN)C(=O)N1CCC[C@@H]1C(=O)N[C@@H](CC(N)=O)C(=O)N[C@H](C(=O)N[C@@H](Cc1cnc[nH]1)C(=O)N[C@H](C(=O)N[C@@H](CC(=O)O)C(=O)NCC(=O)N[C@@H](Cc1ccc(O)cc1)C(=O)N[C@@H](Cc1ccccc1)C(=O)N[C@@H](CCC(=O)O)C(=O)N[C@@H](CCCNC(=N)N)C(=O)N[C@@H](CC(C)C)C(=O)NC(C)(C)C(=O)N[C@@H](C)C(=O)N[C@@H](CCCCN)C(=O)N[C@@H](CC(C)C)C(N)=O)c1ccccc1)C(C)C`, for which the remaining at 24 h stood at 34.7% in data set [1] and 4.8% in data set [2].
On to `CC(=O)NCSC[C@H](NC(=O)[C@H]1CCCN1C(=O)[C@H](CCCCN)NC(=O)[C@H](CO)NC(=O)[C@H](CCC(N)=O)NC(=O)[C@H](Cc1ccccc1)NC(C)=O)C(=O)N[C@H](C(=O)N[C@@H](Cc1cnc[nH]1)C(=O)N[C@H](C(=O)N[C@@H](CC(=O)O)C(=O)N[C@H](C)C(=O)N[C@@H](Cc1ccc(O)cc1)C(=O)N[C@@H](Cc1ccccc1)C(=O)N[C@@H](CCC(=O)O)C(=O)N[C@@H](CCCNC(=N)N)C(=O)N[C@@H](CC(C)C)C(=O)NC(C)(C)C(=O)N[C@@H](C)C(=O)N[C@@H](CCCCN)C(=O)N[C@@H](CC(C)C)C(N)=O)C(C)(C)C)C(C)C`, for which the remaining at 24 h in data set [1] came to 86.2%; in data set [2], 43%.
In the same order, the values of `CC(=O)N[C@@H](Cc1ccccc1)C(=O)N[C@@H](CCC(N)=O)C(=O)N[C@@H](CO)C(=O)N[C@@H](CCCCN)C(=O)N1CCC[C@@H]1C(=O)N[C@@H](CC(N)=O)C(=O)N[C@H](C(=O)N[C@@H](Cc1cnc[nH]1)C(=O)N[C@H](C(=O)N1CCC[C@H]1C(=O)NCC(=O)N[C@@H](Cc1ccc(O)cc1)C(=O)N[C@@H](Cc1ccccc1)C(=O)NC(C)(C)C(=O)N[C@@H](CCCNC(=N)N)C(=O)N[C@@H](CC(C)C)C(=O)NC(C)(C)C(=O)N[C@@H](C)C(=O)N[C@@H](CCCCN)C(=O)N[C@@H](CC(C)C)C(N)=O)C(C)C)C(C)C` are 99.5% and 31.2%.
As for `CC(=O)N[C@@H](Cc1ccccc1)C(=O)N[C@@H](CCC(N)=O)C(=O)N[C@@H](CO)C(=O)N[C@@H](CCCCN)C(=O)N1CCC[C@@H]1C(=O)N[C@@H](CC(N)=O)C(=O)N[C@H](C(=O)N[C@@H](Cc1cnc[nH]1)C(=O)N[C@H](C(=O)N[C@@H](CC(=O)O)C(=O)N[C@@H]1CSSCC[C@@H](C(=O)N[C@@H](CCCNC(=N)N)C(=O)N[C@@H](CC(C)C)C(=O)N[C@@H](C)C(=O)N[C@@H](C)C(=O)N[C@@H](CCCCN)C(=O)N[C@@H](CC(C)C)C(N)=O)NC(=O)[C@H](Cc2ccccc2)NC(=O)[C@H](Cc2ccc(O)cc2)NC1=O)C(C)(C)C)C(C)C`, the remaining at 24 h was determined as 61.5% in data set [1] and 11.1% in data set [2].
In the same order, the values of `CCCC[C@H](NC(=O)C(C)(C)NC(=O)[C@H](CC(C)C)NC(=O)[C@H](CCCNC(=N)N)NC(=O)[C@H](CCC(=O)O)NC(=O)[C@H](Cc1ccccc1)NC(=O)[C@H](Cc1ccc(O)cc1)NC(=O)CNC(=O)[C@H](CC(=O)O)NC(=O)[C@@H](NC(=O)[C@H](Cc1cnc[nH]1)NC(=O)[C@@H](NC(=O)[C@H](CC(N)=O)NC(=O)[C@H]1CCCN1C(=O)[C@H](CCCCN)NC(=O)[C@H](CO)NC(=O)[C@H](CCC(N)=O)NC(=O)[C@H](Cc1ccccc1)NC(C)=O)C(C)C)C(C)(C)C)C(=O)N[C@@H](CCCCN)C(=O)N[C@@H](CC(C)C)C(N)=O` are 90.1% and 17%.
For `CC(=O)N[C@@H](Cc1ccccc1)C(=O)N[C@@H](CCC(N)=O)C(=O)N[C@@H](CO)C(=O)N[C@@H](CCCCN)C(=O)N1CCC[C@@H]1C(=O)N[C@@H](CC(N)=O)C(=O)N[C@H](C(=O)N[C@@H](Cc1cnc[nH]1)C(=O)N[C@H](C(=O)N[C@@H](CC(=O)O)C(=O)NCC(=O)N[C@@H](Cc1ccc(O)cc1)C(=O)N[C@@H](Cc1ccccc1)C(=O)N[C@@H](CCC(=O)O)C(=O)N[C@@H](CCCNC(=N)N)C(=O)N[C@@H](CC(C)C)C(=O)NC(C)(C)C(=O)N[C@@H](C)C(=O)N[C@@H](CCCCN)C(=O)N[C@@H](CC(C)C)C(N)=O)C(C)C)C(C)C` the same measures were 10 to 27% and 5 to 10%.
As to `CC(=O)N[C@@H](Cc1ccccc1)C(=O)N[C@@H](CCC(N)=O)C(=O)N[C@@H](CO)C(=O)N[C@@H](CCCCN)C(=O)N1CCC[C@@H]1C(=O)N[C@@H](CC(N)=O)C(=O)N[C@H](C(=O)N[C@@H](Cc1cnc[nH]1)C(=O)N[C@H](C(=O)N[C@@H](CC(=O)O)C(=O)NCC(=O)N[C@@H](Cc1ccc(O)cc1)C(=O)N[C@@H](Cc1csc2ccccc12)C(=O)N[C@@H](CCC(=O)O)C(=O)N[C@@H](CCCNC(=N)N)C(=O)N[C@@H](CC(C)C)C(=O)NC(C)(C)C(=O)N[C@@H](C)C(=O)N[C@@H](CCCCN)C(=O)N[C@@H](CC(C)C)C(N)=O)C(C)C)C(C)C`, the remaining at 24 h in data set [1] worked out at 46.6%; in data set [2], 6.1%.
For `CCCCCC(=O)N[C@@H](Cc1ccccc1)C(=O)N[C@@H](CCC(N)=O)C(=O)N[C@@H](CO)C(=O)N[C@@H](CCCCN)C(=O)N1CCC[C@@H]1C(=O)N[C@@H](CC(N)=O)C(=O)N[C@H](C(=O)N[C@@H](Cc1cnc[nH]1)C(=O)N[C@H](C(=O)N[C@@H](CC(=O)O)C(=O)N[C@H](C)C(=O)N[C@@H](Cc1ccc(O)cc1)C(=O)N[C@@H](Cc1ccccc1)C(=O)N[C@@H](CCC(=O)O)C(=O)N[C@@H](CCCNC(=N)N)C(=O)N[C@@H](CC(C)C)C(=O)NC(C)(C)C(=O)N[C@@H](C)C(=O)N[C@@H](CCCCN)C(=O)N[C@@H](CC(C)C)C(N)=O)C(C)(C)C)C(C)C` the same measures were 97.4% and 39.9%.
